According to the supplement of paper PMC4862054:

Tests used:
Experiment in all cases: normalised response (% of control), CellTiter-Glo; higher = more viable cells (100 = DMSO, 0 = benzethonium chloride kill control)
Details in all cases: incubation time: 72 h
MDA-MB-436 = tested on: MDA-MB-436
Procedure, shortened: (§1)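 Breast cancer cell lines, seeded at 20 µl suspension per well, were incubated for 72 h in 384-well plates containing compound at 5 concentrations. These concentrations rose in 10-fold steps over a 10,000-fold range set for each compound. CellTox Green fluorescence (485/520 nm) was read, then CellTiter-Glo luminescence after 10 min at room temperature, and each plate was normalised to 0.1 % DMSO (100) and a positive kill control (0). Values are normalised signals, each at one concentration.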

HCC1937 = tested on: HCC1937
Procedure, shortened: as §1

HCC1143 = tested on: HCC1143
Procedure, shortened: as §1

MDA-MB-453 = tested on: MDA-MB-453
Procedure, shortened: as §1

CAL-85-1 = tested on: CAL-85-1
Procedure, shortened: as §1

MDA-MB-468 = tested on: MDA-MB-468
Procedure, shortened: as §1

DU-4475 = tested on: DU-4475
Procedure, shortened: as §1

CAL-120 = tested on: CAL-120
Procedure, shortened: as §1

BT-549 = tested on: BT-549
Procedure, shortened: as §1

HCC1599 = tested on: HCC1599
Procedure, shortened: as §1

BT-474 = tested on: BT-474
Procedure, shortened: as §1

MFM-223 = tested on: MFM-223
Procedure, shortened: as §1

MDA-MB-231 = tested on: MDA-MB-231
Procedure, shortened: as §1

HDQ-P1 = tested on: HDQ-P1
Procedure, shortened: as §1

CAL-51 = tested on: CAL-51
Procedure, shortened: as §1

Hs578T = tested on: Hs578T
Procedure, shortened: as §1

CAL-148 = tested on: CAL-148
Procedure, shortened: as §1

MCF-10A = tested on: MCF-10A
Procedure, shortened: as §1

SK-BR-3 = tested on: SK-BR-3
Procedure, shortened: as §1

SMILES | normalised response (MDA-MB-436) [%] | normalised response (HCC1937) [%] | normalised response (HCC1143) [%] | normalised response (MDA-MB-453) [%] | normalised response (CAL-85-1) [%] | normalised response (MDA-MB-468) [%] | normalised response (DU-4475) [%] | normalised response (CAL-120) [%] | normalised response (BT-549) [%] | normalised response (HCC1599) [%] | normalised response (BT-474) [%] | normalised response (MFM-223) [%] | normalised response (MDA-MB-231) [%] | normalised response (HDQ-P1) [%] | normalised response (CAL-51) [%] | normalised response (Hs578T) [%] | normalised response (CAL-148) [%] | normalised response (MCF-10A) [%] | normalised response (SK-BR-3) [%]
O=NN(CCCl)C(=O)NCCCl [Carmustine] (10 nM) | 98.4 | 101 | 105 | 114 | 95.6 | 102 | 101 | 98.9 | 100 | 97.9 | 93.8 | 102 | 91.9 | 94.8 | 128 | 105 | 93.3 | 96.6 | 
CC(=O)c1c(C)c2cnc(Nc3ccc(N4CCNCC4)cn3)nc2n(C2CCCC2)c1=O [Palbociclib] (10 nM) | 95.4 | 101 | 94.5 | 93.6 | 92 | 92.4 | 97.2 | 95.2 | 100 | 107 | 97.2 | 91.2 | 92.1 | 97.9 | 115 | 100 | 87 | 97.3 | 89.5
Cn1cnc2c(F)c(Nc3ccc(Br)cc3Cl)c(C(=O)NOCCO)cc21 [Selumetinib] (10 nM) | 96.3 | 97.3 | 91 | 96.8 | 107 | 94.8 | 95.1 | 93 | 99.9 | 95 | 89.8 | 90.8 | 97.2 | 86.6 | 107 | 99.4 | 90.6 | 77.4 | 90.6
COc1cc2c(cc1O)CC[C@@H]1[C@@H]2CC[C@]2(C)[C@@H](O)CC[C@@H]12 [2-methoxyestradiol] (10 nM) | 106 | 98.1 | 103 | 96.4 | 103 | 98.2 | 101 | 101 | 94 | 92.7 | 97.8 | 96.5 | 97.7 | 101 | 97.5 | 96.8 | 91.3 | 94.6 | 
CC(=O)N(O)CCCCCNC(=O)CCC(=O)N(O)CCCCCNC(=O)CCC(=O)N(O)CCCCCN [Deferoxamine] (1 nM) | 101 | 93.7 | 95.1 | 94.8 | 93.2 | 91 | 95.6 | 106 | 104 | 120 | 94.6 | 94.7 | 91.8 | 105 | 108 | 100 | 91.9 | 99.2 | 94.8
Cn1cc(C2=Nc3cc(NC(=O)C(N)C4CCCCC4)cc4c3C2=CNNC4=O)cn1 (stereo not drawn) (1 nM) | 86.7 | 94.1 | 86.8 | 84.3 | 95.9 | 91.2 | 98.3 | 97.1 | 98.2 | 97.4 | 93.8 | 86.7 | 95 | 91.4 | 103 | 94 | 91.3 | 80 | 82.5
Nc1ncn([C@@H]2O[C@H](CO)[C@@H](O)[C@H]2O)c(=O)n1 [Azacitidine] (10 nM) | 105 | 101 | 99.4 | 105 | 101 | 103 | 102 | 99.3 | 93.4 | 105 | 99.9 | 96.2 | 94.3 | 99.5 | 113 | 97.5 | 92 | 103 | 110
CC1(C)CNc2cc(NC(=O)c3cccnc3NCc3ccncc3)ccc21 [Motesanib] (10 nM) | 99.4 | 99.6 | 98.2 | 106 | 92.9 | 96.8 | 99.4 | 97.9 | 95.3 | 101 | 105 | 93.7 | 91.2 | 93.9 | 123 | 98.3 | 87.4 | 93.9 | 76.2
Cc1sc2c(c1C)C(c1ccc(Cl)cc1)=N[C@@H](CC(=O)OC(C)(C)C)c1nnc(C)n1-2 [(+)JQ1] (10 nM) | 113 | 94.5 | 105 | 111 | 101 | 98.3 | 104 | 94.8 | 96.2 | 104 | 108 | 108 | 110 | 101 | 107 | 98.1 | 116 | 107 | 
CC1(C)CCC(CN2CCN(c3ccc(C(=O)NS(=O)(=O)c4ccc(NCC5CCOCC5)c([N+](=O)[O-])c4)c(Oc4cnc5[nH]ccc5c4)c3)CC2)=C(c2ccc(Cl)cc2)C1 [ABT-199] (10 nM) | 102 | 99.7 | 99.2 | 97.5 | 106 | 118 | 96.2 | 91.8 | 95.7 | 104 | 97.3 | 100 | 97.2 | 97.1 | 68.3 | 103 | 103 | 101 | 
Nc1nc2[nH]cnc2c(=S)[nH]1 [Thioguanine] (10 nM) | 98.8 | 96.9 | 101 | 87.4 | 99.4 | 99.5 | 98.5 | 100 |  | 112 | 93.8 | 97.2 | 98.2 | 94.6 | 85.1 | 102 | 105 | 98.7 | 
